# Source: patent US8192962B2, “Processes for detecting toxic substances” (Daikin Industries, Ltd., priority 2001, dated 2012)
# Tested on: Energy system protein genes
# Assay: DNA chip mRNA expression in yeast, energy system protein genes (Table 4)
# Type: cell-based, Saccharomyces cerevisiae S288C
# How it was run: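 Whole-genome yeast DNA chip hybridization (65° C., >12 h) of Cy-labeled cDNA from S288C cells exposed 2 h at 25° C. to a sub-lethal toxicant dose in YPD; value is intensity relative to chemical-free control.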
smiles,measurement,setting,value
"[Cl][Hg][Cl] [(3), HgCl2]",The level of expressed mRNA in the presence of chemical substance/The level of expressed mRNA in the absence of chemical substance,yeast gene YJR048W,2.2
same,The level of expressed mRNA in the presence of chemical substance/The level of expressed mRNA in the absence of chemical substance,"yeast gene YJR121W, cells incubated two hours with the chemical substance",3.3
same,The level of expressed mRNA in the presence of chemical substance/The level of expressed mRNA in the absence of chemical substance,yeast gene YJR155W,1.4
same,The level of expressed mRNA in the presence of chemical substance/The level of expressed mRNA in the absence of chemical substance,"yeast gene YKL016C, cells incubated two hours with the chemical substance",0.7
same,The level of expressed mRNA in the presence of chemical substance/The level of expressed mRNA in the absence of chemical substance,"yeast gene YKL060C, cells incubated two hours with the chemical substance",2.5
same,The level of expressed mRNA in the presence of chemical substance/The level of expressed mRNA in the absence of chemical substance,"yeast gene YKL141W, cells incubated two hours with the chemical substance",4.7
same,The level of expressed mRNA in the presence of chemical substance/The level of expressed mRNA in the absence of chemical substance,"yeast gene YKL148C, cells incubated two hours with the chemical substance",3.7
same,The level of expressed mRNA in the presence of chemical substance/The level of expressed mRNA in the absence of chemical substance,"yeast gene YKR009C, cells incubated two hours with the chemical substance",1.5
same,The level of expressed mRNA in the presence of chemical substance/The level of expressed mRNA in the absence of chemical substance,"yeast gene YKR058W, cells incubated two hours with the chemical substance, 25° C., YPD medium",1.4
same,The level of expressed mRNA in the presence of chemical substance/The level of expressed mRNA in the absence of chemical substance,yeast gene YKR097W,1.3
same,The level of expressed mRNA in the presence of chemical substance/The level of expressed mRNA in the absence of chemical substance,"yeast gene YLL041C, cells incubated two hours with the chemical substance",4.6
same,The level of expressed mRNA in the presence of chemical substance/The level of expressed mRNA in the absence of chemical substance,"yeast gene YLR038C, cells incubated two hours with the chemical substance",0.6
same,The level of expressed mRNA in the presence of chemical substance/The level of expressed mRNA in the absence of chemical substance,"yeast gene YLR044C, cells incubated two hours with the chemical substance",2.2
same,The level of expressed mRNA in the presence of chemical substance/The level of expressed mRNA in the absence of chemical substance,"yeast gene YLR134W, cells incubated two hours with the chemical substance",2.3
same,The level of expressed mRNA in the presence of chemical substance/The level of expressed mRNA in the absence of chemical substance,"yeast gene YLR258W, cells incubated two hours with the chemical substance",4.2
same,The level of expressed mRNA in the presence of chemical substance/The level of expressed mRNA in the absence of chemical substance,"yeast gene YLR284C, cells incubated two hours with the chemical substance",3.8
same,The level of expressed mRNA in the presence of chemical substance/The level of expressed mRNA in the absence of chemical substance,"yeast gene YLR295C, cells incubated two hours with the chemical substance, 25° C., YPD medium",1.1
same,The level of expressed mRNA in the presence of chemical substance/The level of expressed mRNA in the absence of chemical substance,"yeast gene YLR304C, cells incubated two hours with the chemical substance",5.0
same,The level of expressed mRNA in the presence of chemical substance/The level of expressed mRNA in the absence of chemical substance,yeast gene YLR345W,1.4
same,The level of expressed mRNA in the presence of chemical substance/The level of expressed mRNA in the absence of chemical substance,"yeast gene YLR354C, cells incubated two hours with the chemical substance",2.3
same,The level of expressed mRNA in the presence of chemical substance/The level of expressed mRNA in the absence of chemical substance,"yeast gene YLR377C, cells incubated two hours with the chemical substance",1.8
same,The level of expressed mRNA in the presence of chemical substance/The level of expressed mRNA in the absence of chemical substance,"yeast gene YLR395C, cells incubated two hours with the chemical substance",2.2
same,The level of expressed mRNA in the presence of chemical substance/The level of expressed mRNA in the absence of chemical substance,yeast gene YML087C,0.8
same,The level of expressed mRNA in the presence of chemical substance/The level of expressed mRNA in the absence of chemical substance,"yeast gene YML120C, cells incubated two hours with the chemical substance",1.9
same,The level of expressed mRNA in the presence of chemical substance/The level of expressed mRNA in the absence of chemical substance,"yeast gene YML129C, cells incubated two hours with the chemical substance",0.9
same,The level of expressed mRNA in the presence of chemical substance/The level of expressed mRNA in the absence of chemical substance,"yeast gene YMR073C, cells incubated two hours with the chemical substance",1.2
same,The level of expressed mRNA in the presence of chemical substance/The level of expressed mRNA in the absence of chemical substance,yeast gene YMR118C,1.4
same,The level of expressed mRNA in the presence of chemical substance/The level of expressed mRNA in the absence of chemical substance,"yeast gene YMR205C, cells incubated two hours with the chemical substance",2.3
same,The level of expressed mRNA in the presence of chemical substance/The level of expressed mRNA in the absence of chemical substance,"yeast gene YMR261C, cells incubated two hours with the chemical substance",3.6
same,The level of expressed mRNA in the presence of chemical substance/The level of expressed mRNA in the absence of chemical substance,"yeast gene YMR267W, cells incubated two hours with the chemical substance, 25° C., YPD medium",0.7
same,The level of expressed mRNA in the presence of chemical substance/The level of expressed mRNA in the absence of chemical substance,"yeast gene YMR323W, cells incubated two hours with the chemical substance",2.9
same,The level of expressed mRNA in the presence of chemical substance/The level of expressed mRNA in the absence of chemical substance,yeast gene YNL071W,1.7
same,The level of expressed mRNA in the presence of chemical substance/The level of expressed mRNA in the absence of chemical substance,"yeast gene YNL202W, cells incubated two hours with the chemical substance",1.2
same,The level of expressed mRNA in the presence of chemical substance/The level of expressed mRNA in the absence of chemical substance,yeast gene YNL241C,4.3
same,The level of expressed mRNA in the presence of chemical substance/The level of expressed mRNA in the absence of chemical substance,yeast gene YNL331C,1.3
same,The level of expressed mRNA in the presence of chemical substance/The level of expressed mRNA in the absence of chemical substance,"yeast gene YOL086C, cells incubated two hours with the chemical substance",2.2
same,The level of expressed mRNA in the presence of chemical substance/The level of expressed mRNA in the absence of chemical substance,yeast gene YOL165C,1.8
same,The level of expressed mRNA in the presence of chemical substance/The level of expressed mRNA in the absence of chemical substance,"yeast gene YOR142W, cells incubated two hours with the chemical substance",3.4
same,The level of expressed mRNA in the presence of chemical substance/The level of expressed mRNA in the absence of chemical substance,"yeast gene YOR178C, cells incubated two hours with the chemical substance",4.8
same,The level of expressed mRNA in the presence of chemical substance/The level of expressed mRNA in the absence of chemical substance,"yeast gene YOR388C, cells incubated two hours with the chemical substance",1.3
same,The level of expressed mRNA in the presence of chemical substance/The level of expressed mRNA in the absence of chemical substance,"yeast gene YPL031C, cells incubated two hours with the chemical substance",1.4
same,The level of expressed mRNA in the presence of chemical substance/The level of expressed mRNA in the absence of chemical substance,"yeast gene YPL061W, cells incubated two hours with the chemical substance",5.0
same,The level of expressed mRNA in the presence of chemical substance/The level of expressed mRNA in the absence of chemical substance,yeast gene YPL088W,0.6
same,The level of expressed mRNA in the presence of chemical substance/The level of expressed mRNA in the absence of chemical substance,yeast gene YPL171C,3.5
same,The level of expressed mRNA in the presence of chemical substance/The level of expressed mRNA in the absence of chemical substance,yeast gene YPL240C,2.4
same,The level of expressed mRNA in the presence of chemical substance/The level of expressed mRNA in the absence of chemical substance,"yeast gene YPL262W, cells incubated two hours with the chemical substance",3.8
same,The level of expressed mRNA in the presence of chemical substance/The level of expressed mRNA in the absence of chemical substance,"yeast gene YPL275W, cells incubated two hours with the chemical substance",1.3
same,The level of expressed mRNA in the presence of chemical substance/The level of expressed mRNA in the absence of chemical substance,"yeast gene YPL276W, cells incubated two hours with the chemical substance",1.6
same,The level of expressed mRNA in the presence of chemical substance/The level of expressed mRNA in the absence of chemical substance,"yeast gene YPR048W, cells incubated two hours with the chemical substance",0.9
same,The level of expressed mRNA in the presence of chemical substance/The level of expressed mRNA in the absence of chemical substance,"yeast gene YPR184W, cells incubated two hours with the chemical substance",5.7
